# Measured values taken from US20250154607A1, “ISOTHERMAL AMPLIFICATION OF PATHOGENS” (priority 2021, published 2025).
# What was measured:
# [1] = target: T1, RNase A (Bos taurus, UniProt P61823); assay: RNaseAlert assay of RNase A inactivation with CTAB and DTT after sequestration by HP-βCD; format: biochemical; conditions: for RNase A inactivation, activity upon sequestration of the detergent: 68° C.; for RNase A activity after CTAB sequestration by 4% HP-βCD: 20 ng RNase A, various temperatures
# T1 sequence (P61823 27-150): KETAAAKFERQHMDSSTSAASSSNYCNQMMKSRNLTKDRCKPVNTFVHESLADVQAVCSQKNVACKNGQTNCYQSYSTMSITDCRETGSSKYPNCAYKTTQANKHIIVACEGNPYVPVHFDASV
# Procedure: FIG. 7 depicts data related to the effect of DTT on the irreversibility of RNase A inactivation in the presence of CTAB at various temperatures. To simulate authentic reaction conditions, standard APA reaction reagents lacking 9° Nm™ DNA polymerase but containing 4% HP-βCD were prepared in a lyophilized format. The lyophilized reagents also contained the RNaseAlert® assay substrate, a synthetic quenched RNA probe which releases fluorescence in the presence of active RNase A. Reagents were preincubated 2 minutes and dissolved at the indicated temperatures with […] solutions containing 20 ng RNase A ([…]) with (dotted lines) or without (shapes) 10 mM DTT which had also been preincubated at the indicated temperatures on a Bio-Rad CFx thermocycler with programmed temperature gradient.
# FIG. 8 depicts data related to effect of DTT and HP-βCD on RNase A inactivation. An RNase Alert assay was used to study the effect of DTT and 0.2% cationic detergent CTAB on RNase inactivation. RNase A was spiked into solutions containing 0.2% CTAB which were then mixed with lyophilized APA reagent pellets lacking enzymes but containing RNase Alert substrate and protective agent (4% HP-0 CD) after preincubation of all solutions at 68° C. followed by fluorescence data collection at 68° C.
# [2] = tested on: nasal swab ribonucleases; assay: Protection of RNA from nasal swab ribonucleases (influenza B RNA APA); format: biochemical, human; conditions: nasal swab eluate 4% of swab; 0.2% SDS with or without 10 mM DTT; 2 minutes at 58° C.; then 4% βCD
# [3] = target: T1, RNase A; assay: RNase Alert assay of RNase A activity recovery after SDS/DTT pretreatment; format: biochemical
# Procedure: 2 ng RNase A was incubated 2 minutes at 58° C. in […] solutions containing either 10 mM DTT+0.2% SDS (+), 0.2% SDS (triangle), 10 mM DTT (square), or neither (solid line) and then the RNase Alert assay was used to study the recovery of any RNase activity upon sequestration of SDS after dissolving lyophilized APA reagents without enzymes but containing RNase Alert substrate and protective agent (4% βCD) with continued incubation and fluorescence data collection at 58° C. In the presence of RNase activity, the RNase alert indicator substrate releases detectable fluorescence. […] FIG. 11A depicts recovery of RNase A activity after identical pretreatment without addition of βCD, in this case monitoring activity in […] of the solution by transfer to an RNase alert “wet” reaction format. […] Thus, as shown here, simultaneous treatment with ionic detergent and reducing agent is required for successful irreversible inactivation under the conditions described herein. […] Without being bound by any particular theory, this may be related to the impact of cyclodextrin and other APA additives on the refolding process. This example also provides further confirmation that the prior art and currently available methods (e.g, employing a reducing agent but no denaturant) are inadequate under these conditions, with an independent, commercially available RNase assay.
# [4] = target: T1, RNase A; assay: Influenza B virus APA assay with RNase A in ELB (Elution/Lysis Buffer); format: biochemical; conditions: RNAse A 10 μg/ml; 2 minutes 58° C. in ELB with 0.2% SDS, without or with 10 mM DTT; β-CD 4% final
# Procedure: FIGS. 12A-12B depict data related to RNase A inactivation in an influenza B assay like the one in Example 4, with DTT in ELB (Elution/Lysis Buffer). […] After incubation, lyophilized APA reagents co-incubated 2 minutes 58° C., containing β-CD (4% final) were dissolved with the heated solutions, and FAM fluorescence collected every 15 seconds to monitor APA. […] The inclusion of DTT enables unimpeded operation of this POC influenza detection system in a mock sample containing very high level of purified RNase A ([…]). Moreover, while currently available methods can only achieve irreversible ribonuclease inactivation at a maximum 200 ng/ml, the compositions and methods provided herein show utility with 10 μg/ml to accommodate potentially larger amounts in patient samples.
# [5] = target: T2, 9° Nm™ DNA polymerase (Thermococcus sp., UniProt Q56366, E143D); assay: APA amplification of Chlamydia trachomatis DNA with CTAB, with or without HP-βCD; format: biochemical
# Procedure: APA reactions containing CAdNTP and sequence-specific molecular beacon detection probes were performed as above in lyophilized (with HP-βCD; FIG. 3B) or wet reactions (no HP-βCD; FIG. 3A) and various amounts of the cationic detergent CTAB, without (“NTC”) or with the addition of 500 copies of C. trachomatis total cell DNA. Activation of CAdNTP by heating 2 minutes at 90° C. was followed by APA at 68° C. with fluorescence collected every 15 seconds.
# [6] = cited from earlier work
# [7] = target: T1, RNase A; assay: Requirements for irreversible RNase inactivation (influenza B RNA APA in presence of RNase A); format: biochemical; conditions: 500 ng RNase A (10 μg/ml); additions 0.2% SDS, 10 mM DTT, 0.1% Triton X-100 as labelled; 2 minutes at 58° C.; then 4% βCD
# [8] = target: T2, 9° Nm™ DNA polymerase; assay: APA amplification of Neisseria gonorrhea DNA with SDS, with or without HPβCD; format: biochemical; conditions: 4% HPβCD, lyophilized reagents, 500 copies N. gonorrhea genomic DNA
# Procedure: This example provides SDS complexation analyses of the methods and compositions provided herein. […] Anionic detergent SDS at >0.01% is inhibitory to APA amplification of DNA, but the presence of the protective agent hydroxypropyl β-CD (βCD) allowed amplification to proceed despite≤0.2% SDS. The kinetics of hydroxypropyl β-CD sequestration of SDS were thus sufficiently rapid at a molar ratio of 2:1 (˜14 mM: −7 mM) to prevent 9° Nm™ DNA polymerase inactivation by SDS.
# Standard APA reactions with or without 4% Sigma 389145 HPβCD containing “hot-start” CleanAmp™ deoxynucleotides (CAdNTP) and a sequence-specific molecular beacon detection probe were performed with lyophilized ((supplemented with dextran 40, Trehalose), FIG. 2B) or “wet” (no HPβCD, FIG. 2A) reagents including Tris pH 8.4, KCl, MgSO4, and (NH4)2SO4 Triton X-100, 9° Nm™ DNA polymerase, CAdNTP, primers and probe. For the lyophilized reactions, samples were prepared in 50 μl solution containing MgSO4, and (NH4)2SO4 with (shapes) or without (dashed) 500 copies of N. gonorrhea genomic DNA. After dried reagents were dissolved with the samples, various amounts of SDS were added, as indicated, and solutions were vortexed. For the wet reactions, 45 μl master mix containing all reaction components was added to 5 μl sample containing 1OX SDS (final concentration as indicated), with and without 500 copies of N. gonorrhea genomic DNA. Activation of CAdNTP by 2 minutes 90° C. was followed by APA at 68° C. for 10 minutes with detection of the NG amplification product by fluorescence collected every 15 seconds.
# [9] = tested on: Chlamydia trachomatis elementary bodies; assay: Lysis of Chlamydia trachomatis elementary bodies, read out by APA; conditions: APA reaction mix containing 4% cyclodextrin HP-βCD
# Procedure: Elementary body lysis (˜40/reaction) was probed in this example using an APA-based assay. Elementary bodies (Acrometrix) were added to either cold chlamydia transport media (SPD containing sucrose, phosphate buffer, and glutamic acid), TE (Tris-EDTA 10-1), or lysis buffer containing 0.4% SDS, pH 2.2. The samples in TE or SDS were heated 5 minutes at 95° C. (heat lysis) or 2 minutes at 78° C. (SDS lysis), respectively. Then 5 μl (containing 40 elementary bodies) was added to “wet” APA reaction mix as above (pH 7.6 to facilitate isothermal CAdNTP activation) containing 4% cyclodextrin HP-βCD for isothermal APA (68° C.) with fluorescence from a chlamydia-specific molecular beacon collected every 15 seconds.
# [10] = tested on: influenza B RNA; assay: Reverse-transcription APA detection of influenza B RNA with SDS and lyophilized reagents containing cyclodextrin; format: biochemical; conditions: 0.2% SDS lysis solution, 500 IU influenza B RNA, 4% betaCD in lyophilized reagents
# Procedure: APA was performed with lyophilized reagents (including β-cyclodextrin, dNTPs, 35 units reverse transcriptase, KCl, EGTA (or EDTA), Tx-100, Tween 80, poly rA, Tris pH8.4, dextran 40k, 4% betaCD, trehalose, primers, probe, 9° Nml™)
# After two minutes at 58° C. (to facilitate reverse transcription) the temperature was raised to 68° C. for APA and fluorescence detection.
# [11] = target: T2, 9° Nm™ DNA polymerase; assay: Order-of-addition assay (APA of S. enterica DNA, SDS and hydroxypropyl β-CD); format: biochemical; conditions: 4% hydroxypropyl β-CD added prior to 0.4% SDS
# Procedure: Order-of-addition assay: Detection time dependent on cyclodextrin addition prior to brief interaction of enzymes with SDS. Since SDS rapidly and irreversibly inactivated 9° Nm™ DNA polymerase, when the enzyme is instead simultaneously exposed to SDS and β-CD, the kinetics of complexation of the latter two substances must be very rapid, compared with the rate of interaction between SDS and the enzyme.
# FIG. 6 depicts data related to detection of S. enterica DNA target (50,000 copies) by APA reactions in a wet “hot-start” format mediated by CleanAmp™ deoxynucleotides (CAdNTP) containing Tris pH7.6, KCl, (NH4)2SO4, MgSO4, Triton X-100, SYBRI, CAdNTP, 9° Nm™ DNA polymerase, with additions of 0.4% SDS (X), 4% hydroxypropyl β-CD (squares), SDS then immediately β-CD (circles), or β-CD then SDS (solid line) with mixing. Control (ctrl dotted line) was no additions. All samples included DNA target. Isothermal APA was at 68° C., collecting intercalating dye fluorescence every 15 seconds to monitor all exponential DNA amplification. […] Negative controls for each condition without S. enterica DNA confirmed specificity of indicated amplification products (not shown).
# T2 sequence (Q56366 whole entry E143D): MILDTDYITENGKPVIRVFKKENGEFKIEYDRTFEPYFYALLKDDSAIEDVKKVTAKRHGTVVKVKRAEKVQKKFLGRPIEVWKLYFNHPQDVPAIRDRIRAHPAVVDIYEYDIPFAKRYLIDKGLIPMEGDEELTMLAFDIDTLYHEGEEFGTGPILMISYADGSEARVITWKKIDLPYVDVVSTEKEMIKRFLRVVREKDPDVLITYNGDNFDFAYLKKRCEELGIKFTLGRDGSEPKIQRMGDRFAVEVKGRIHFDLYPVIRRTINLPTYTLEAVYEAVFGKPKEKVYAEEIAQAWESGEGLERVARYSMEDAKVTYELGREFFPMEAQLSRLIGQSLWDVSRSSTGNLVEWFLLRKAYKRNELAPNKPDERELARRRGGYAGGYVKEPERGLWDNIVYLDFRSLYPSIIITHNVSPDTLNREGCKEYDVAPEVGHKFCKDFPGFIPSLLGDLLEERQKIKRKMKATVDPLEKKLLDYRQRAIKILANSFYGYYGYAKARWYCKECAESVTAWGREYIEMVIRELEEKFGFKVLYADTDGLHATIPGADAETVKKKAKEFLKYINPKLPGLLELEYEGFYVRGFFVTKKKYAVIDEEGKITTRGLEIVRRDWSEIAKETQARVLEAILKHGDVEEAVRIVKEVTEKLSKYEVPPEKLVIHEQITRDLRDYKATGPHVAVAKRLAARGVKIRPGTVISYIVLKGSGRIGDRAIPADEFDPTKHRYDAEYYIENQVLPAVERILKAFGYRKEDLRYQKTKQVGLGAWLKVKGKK
compound,measurement,setting,value
"O[C@H](CS)[C@H](O)CS (racemic) [DTT, dithiothreitol]","RNase A inactivation, activity upon sequestration of the detergent","[1]; 0.2% CTAB with 10 mM DTT, 4% HP-βCD",effectively irreversibly inactivated
same,RNase A activity after CTAB sequestration by 4% HP-βCD,[1]; with 10 mM DTT,no restored activity was detected
same,Influenza B RNA detection after nasal swab eluate pretreatment and SDS sequestration,[2],restored detection
same,"Recovery of RNase A activity after pretreatment, with βCD","[3]; 2 ng RNase A, 2 minutes at 58° C., 10 mM DTT and/or 0.2% SDS, then 4% βCD",virtually full recovery of enzyme activity
same,"Recovery of RNase A activity after pretreatment, without addition of βCD","[3]; 10 mM DTT alone, wet RNase alert format",did not impact recovery of RNase A activity
same,Influenza B virus APA performance in presence of RNAse A,[4],performance equivalent to a no RNAse A control
"CCCCCCCCCCCCCCCC[N+](C)(C)C.[Br-] [CTAB, cetyltrimethylammonium bromide]",CTAB concentration giving complete inactivation of APA,"[5]; absence of HP-βCD, 500 copies C. trachomatis total cell DNA",> 0.01%
same,"RNase A inactivation, activity upon sequestration of the detergent","[1]; 0.2% CTAB only, RNase A 10 μg/ml and 1 μg/ml",activity was rapidly restored
same,RNase A activity after CTAB sequestration by 4% HP-βCD,[1]; without DTT,immediate reversibility
OC[C@H]1O[C@@H]2O[C@H]3[C@H](O)[C@@H](O)[C@@H](O[C@H]4[C@H](O)[C@@H](O)[C@@H](O[C@H]5[C@H](O)[C@@H](O)[C@@H](O[C@H]6[C@H](O)[C@@H](O)[C@@H](O[C@H]7[C@H](O)[C@@H](O)[C@@H](O[C@H]1[C@H](O)[C@H]2O)O[C@@H]7CO)O[C@@H]6CO)O[C@@H]5CO)O[C@@H]4CO)O[C@@H]3CO [α-Cyclodextrin],water solubility,[6],50 mg/mL
Triton X-100,Influenza B RNA detection by APA after RNase A pretreatment,[7],no RNA detection
hydroxypropyl-β-cyclodextrin [HP-βCD],SDS concentration tolerated by APA amplification in presence of the protective agent,[8],at least 0.2%
same,SDS concentration tolerated by APA amplification in presence of the protective agent,[8]; listed as hydroxypropyl β-CD,≤ 0.2%
same,CTAB concentration completely tolerated by APA in presence of the protectant,"[5]; with HP-βCD, lyophilized reactions",at least 0.2%
same,Impact of persisting 0.4% ionic detergent on 9° Nm™ DNA polymerase-mediated amplification,[9],had no impact
same,Restoration of assay performance in the presence of SDS,[10],virtually complete restoration of assay performance
same,Effect on APA amplification,[11],"restoring detection time, although with reduced plateau"
